In patent US20070093520A1, “Method of treatment of diarrhea-predominant irritable bowel syndrome in a subject” (priority 2005, published 2007):
Where two headings read alike, the source gives them in different places.

System: diarrhea-predominant IBS subjects
Format: in vivo, human
Conditions: for Number of subjects who died / Primary reason for withdrawal: Adverse event and lack of efficacy / Primary reason for withdrawal: Baseline complaint/adverse event: 2 mg TID
Method: The study was performed in approximately 150 study centers. Approximately 1600 eligible subjects were to be given cilansetron 2 mg TID. At Visit 1, pre-treatment assessments were conducted. […] Subjects were to return to the study site one month later for Visit 3 (Day 31) for their first interim assessment. […] All subjects who discontinued from the study were to have the same post-study assessments required at Visit 7 performed at their early termination visit. […]
Stool specimens were analyzed at every visit for occult blood. An independent GERB had been established to provide advice on GI AEs during the course of the study.
Adverse events were assessed at Baseline, at each clinic visit, and at the end of the study (Month 12 or the early termination visit). All AEs, which occurred during the study were followed up in accordance with good medical practice until resolved or judged no longer clinically significant, or if a condition was chronic, until fully characterized. Adverse events could occur in the specified follow-up period and, regardless of the interval since the last administration of the study medication, were treated in the same manner as an AE which occurred during the treatment with study medication. Each AE was evaluated for duration, severity, seriousness, and causal relationship to the investigational drug. The action taken and the outcome were also recorded.
Specifically, subjects who were lost to follow-up and had no post-Baseline contact with the site were excluded from the Safety population. The subjects who discontinued from the study due to lost to follow-up were identified based on the information collected on the study termination CRF page.
After the pretreatment assessment at Visit 1 (Days […] to −3), subjects were to return to the study site for a Baseline assessment and start the treatment at Visit 2 (Day 1).
For the by time-interval analyses of disposition, prevalence of AEs, and of markedly abnormal and predefined changes in laboratory values, vital signs, and ECGs, the following interval windows were used:
Adverse events that were already present prior to the first dose of cilansetron study medication but increased in severity afterwards were considered as treatment-emergent.
The 5% cutoff point was based on the incidence within higher level terms.
Subjects were counted at most once for each primary system organ class and preferred term. Serious AEs that resolved prior to receiving study medication or occurred more than 30 days after the last dose of study medication were not included in the incidence tables. A listing of all SAEs is presented; SAEs with onset prior to receiving study medication or more than 30 days after discontinuation of study medication were flagged. The listing presents lower level term and preferred term of the SAE, severity, action taken, outcome, and relationship of the SAE, start and stop date of the SAE, study day of onset of the SAE, age, race, and sex.

[1] = Cilansetron 2 mg, N=1454, % of appropriate gender
[2] = Study 3008, 2 mg TID (N = 1454)
[3] = Study 3008, of subjects who received study medication
[4] = TEAE incidence, 2 mg, Safety Population, HLT

Cc1nccn1C[C@H]1CCc2c(c3cccc4c3n2CCC4)C1=O [cilansetron, (R)-(−)-4,5,6,8,9,10-hexahydro-10-[(2-methyl-1H-imidazol-1-yl)methyl]-11H-pyrido-[3,2,1-jk]-carbazol-11-one]
TEAE incidence: Transient Cerebrovascular Events (Cilansetron 2 mg, N=1454): 1 (<1%) n (%)
TEAE incidence: Transient Global Amnesia (Cilansetron 2 mg, N=1454): 1 (<1%) n (%)
TEAE incidence: Transient Ischaemic Attack (Cilansetron 2 mg, N=1454): 1 (<1%) n (%)
TEAE incidence: Tremor (Cilansetron 2 mg, N=1454): 2 (<1%) n (%)
TEAE incidence: Tremor (Excl Congenital) (Cilansetron 2 mg, N=1454): 2 (<1%) n (%)
TEAE incidence: Triglyceride Analyses (Cilansetron 2 mg, N=1454): 11 (<1%) n (%)
TEAE incidence: Urethritis Non-Specific (Cilansetron 2 mg, N=1454): 1 (<1%) n (%)
TEAE incidence: Urinalysis NEC (Cilansetron 2 mg, N=1454): 20 (1%) n (%)
TEAE incidence: Urine Bilirubin Increased (Cilansetron 2 mg, N=1454): 2 (<1%) n (%)
TEAE incidence: Urine Ketone Body Present (Cilansetron 2 mg, N=1454): 2 (<1%) n (%)
TEAE incidence: Vascular Tests NEC (Incl Blood Pressure) (Cilansetron 2 mg, N=1454): 7 (<1%) n (%)
TEAE incidence: Vasovagal Attack (Cilansetron 2 mg, N=1454): 1 (<1%) n (%)
TEAE incidence: Viraemia NOS Present (Cilansetron 2 mg, N=1454): 3 (<1%) n (%)
TEAE incidence: Vitamin Analyses (Cilansetron 2 mg, N=1454): 1 (<1%) n (%)
TEAE incidence: Vitamin B12 Decreased (Cilansetron 2 mg, N=1454): 1 (<1%) n (%)
TEAE incidence: Vomiting NOS (Cilansetron 2 mg, N=1454): 25 (2%) n (%)
TEAE incidence: Weight Decreased (Cilansetron 2 mg, N=1454): 3 (<1%) n (%)
TEAE incidence: Weight Increased (Cilansetron 2 mg, N=1454): 13 (<1%) n (%)
TEAE incidence: White Blood Cell Analyses (Cilansetron 2 mg, N=1454): 25 (2%) n (%)
TEAE incidence: White Blood Cell Count Decreased (Cilansetron 2 mg, N=1454): 4 (<1%) n (%)
TEAE incidence: White Blood Cell Count Increased (Cilansetron 2 mg, N=1454): 1 (<1%) n (%)
TEAE incidence: White Blood Cells Urine (Cilansetron 2 mg, N=1454): 3 (<1%) n (%)
TEAE incidence: White Blood Cells Urine Positive (Cilansetron 2 mg, N=1454): 2 (<1%) n (%)
TEAE incidence: abdominal pain NOS (Cilansetron 2 mg, N=1454): 156 (11%) n (%)
TEAE incidence: back pain (Cilansetron 2 mg, N=1454): 40 (3%) n (%)
TEAE incidence: constipation (Cilansetron 2 mg, N=1454): 222 (15%) n (%)
TEAE incidence: flatulence (Cilansetron 2 mg, N=1454): 38 (3%) n (%)
TEAE incidence: flatulence, bloating and distension (Cilansetron 2 mg, N=1454): 91 (6%) n (%)
TEAE incidence: headache NOS (Cilansetron 2 mg, N=1454): 100 (7%) n (%)
TEAE incidence: nasopharyngitis (Cilansetron 2 mg, N=1454): 44 (3%) n (%)
TEAE incidence: nausea (Cilansetron 2 mg, N=1454): 78 (5%) n (%)
TEAE incidence: nausea and vomiting symptoms (Cilansetron 2 mg, N=1454): 92 (6%) n (%)
TEAE incidence: sinusitis NOS (Cilansetron 2 mg, N=1454): 25 (2%) n (%)
Total Number of Subjects with at Least One TEAE (Cilansetron 2 mg, N=1454): 931 (64%) n (%)
TEAE incidence: Female Reproductive Tract Infections* [1]: 4 (<1%) n (%)
TEAE incidence: Oophoritis* [1]: 1 (<1%) n (%)
TEAE incidence: Pelvic Inflammatory Disease NOS* [1]: 1 (<1%) n (%)
TEAE incidence: Vaginal Candidiasis* [1]: 5 (<1%) n (%)
TEAE incidence: Vaginitis* [1]: 2 (<1%) n (%)
TEAE incidence: Vulvovaginitis Trichomonal* [1]: 1 (<1%) n (%)
TEAEs that led to dose reduction (Study 3008): 2%
TEAEs that led to permanent discontinuation of study medication (Study 3008): Thirteen
overall incidence of TEAEs possibly, probably, or unlikely related to study medication (Study 3008): 42%
severe TEAEs (Study 3008): 9%
special interest TEAEs (Study 3008): 54%
subjects with a treatment emergent SAE (Study 3008): Six
subjects with at least one TEAE (Study 3008): Sixty-four
withdrawal for AEs (combined categories) (Study 3008): 13%
withdrawal for lack of efficacy (combined categories) (Study 3008): 12%
Number of subjects who died (Study 3008): 1 n
Primary reason for withdrawal: Adverse event and lack of efficacy (Study 3008): 119 n
Primary reason for withdrawal: Baseline complaint/adverse event (Study 3008): 75 n
Number of deaths [2]: 1 (<1) n (%)
Number of subjects who permanently discontinued study medication due to a TEAE [2]: 192 (13) n (%)
Number of subjects with at least one AE of special interest [2]: 789 (54) n (%)
Number of subjects with at least one SAE [2]: 85 (6) n (%)
Number of subjects with at least one TEAE [2]: 931 (64) n (%)
Number of subjects with at least one TEAE leading to dose reduction [2]: 34 (2) n (%)
Number of subjects with at least one related TEAE [2]: 604 (42) n (%)
Number of subjects with at least one severe TEAE [2]: 138 (9) n (%)
Number of subjects who died [3]: (<1) %
Primary reason for withdrawal: Adverse event and lack of efficacy [3]: (8) %
Primary reason for withdrawal: Baseline complaint/adverse event [3]: (5) %
Acnes [4]: 2 (<1%) n (%)
Affect Alterations NEC [4]: 2 (<1%) n (%)
Alopecias [4]: 6 (<1%) n (%)
Anxiety Disorders NEC (Incl Obsessive Compulsive Disorder) [4]: 1 (<1%) n (%)
Anxiety Symptoms [4]: 26 (2%) n (%)
Apocrine and Eccrine Gland Disorders [4]: 8 (<1%) n (%)
Appetite Disorders [4]: 15 (1%) n (%)
Arthropathies NEC [4]: 6 (<1%) n (%)
Asthenic Conditions [4]: 38 (3%) n (%)
Benign and Malignant Breast Neoplasms* [4]: 2 (<1%) n (%)
Bladder Disorders NEC [4]: 1 (<1%) n (%)
Bladder and Urethral Symptoms [4]: 18 (1%) n (%)
Breast Disorders NEC* [4]: 1 (<1%) n (%)
Breast Signs and Symptoms* [4]: 4 (<1%) n (%)
Breathing Abnormalities [4]: 7 (<1%) n (%)
Bronchospasm and Obstruction [4]: 10 (<1%) n (%)
Bursal Disorders [4]: 1 (<1%) n (%)
Cardiac Conduction Disorders [4]: 4 (<1%) n (%)
Cardiac Signs and Symptoms NEC [4]: 5 (<1%) n (%)
Cartilage Disorders [4]: 1 (<1%) n (%)
Cervix Disorders NEC* [4]: 1 (<1%) n (%)
Chest and Lung Injuries NEC [4]: 1 (<1%) n (%)
Connective Tissue Disorders (Excl Le) [4]: 1 (<1%) n (%)
Coronary Artery Disorders NEC [4]: 2 (<1%) n (%)
Coughing and Associated Symptoms [4]: 28 (2%) n (%)
Depressive Disorders [4]: 28 (2%) n (%)
Dermal and Epidermal Conditions NEC [4]: 4 (<1%) n (%)
Dermatitis and Eczema [4]: 16 (1%) n (%)
Diabetes Mellitus (Incl Subtypes) [4]: 4 (<1%) n (%)
Dissociative States [4]: 1 (<1%) n (%)
Disturbances in Initiating and Maintaining Sleep [4]: 20 (1%) n (%)
Elevated Cholesterol [4]: 9 (<1%) n (%)
Elevated Triglycerides [4]: 8 (<1%) n (%)
Erection and Ejaculation Conditions and Disorders* [4]: 2 (<1%) n (%)
Erythemas [4]: 1 (<1%) n (%)
Extremity Deformities [4]: 1 (<1%) n (%)
Eye Injuries NEC [4]: 1 (<1%) n (%)
Fear Symptoms [4]: 1 (<1%) n (%)
Febrile Disorders [4]: 20 (1%) n (%)
Fluctuating Mood Symptoms [4]: 2 (<1%) n (%)
Food Malabsorption and Intolerance Syndromes (Excl Sugar Intolerance) [4]: 1 (<1%) n (%)
General Nutritional Disorders NEC [4]: 3 (<1%) n (%)
General Signs and Symptoms NEC [4]: 14 (<1%) n (%)
Heart Failure Signs and Symptoms [4]: 1 (<1%) n (%)
Hyperglycaemic Conditions NEC [4]: 4 (<1%) n (%)
Hyperlipidaemias NEC [4]: 3 (<1%) n (%)
Increased Physical Activity Levels [4]: 1 (<1%) n (%)
Intervertebral Disc Disorders NEC [4]: 3 (<1%) n (%)
Ischaemic Coronary Artery Disorders [4]: 7 (<1%) n (%)
Joint Related Signs and Symptoms [4]: 31 (2%) n (%)
